Experimental data published in patent US9738932B2, “Biomarkers for cardiovascular side-effects induced by cox-2 inhibitory compounds” (FIRALIS SAS, priority 2005, dated 2017).

Tested on: mRNA expression in cardiovascular tissues
Test: Affymetrix GeneChip mRNA expression profiling of monkey tissues (iliac vein, pulmonary vein, aorta, carotid artery, heart) after two-week oral-gavage treatment
Conditions: iliac vein
[1] = group average (Vioxx without A60055)
[2] = group avg, Vioxx without A60055

Experimental: Administration of compounds. A two-week oral-gavage treatment with the Cox-2 specific inhibitor COX189 (Lumiracoxib®, Novartis) in comparison with rofecoxib (Vioxx®, Merck), and celecoxib (Celebrex®, Pharmacia/Pfizer), and with the nonselective NSAID, diclofenac (Voltaren®, Novartis) was performed. […] The test items were administered daily at doses of 100 mg/kg/day, except Vioxx® which was administered at 50 mg/kg/day.
Gene expression profiles. After a period of time (e.g., four weeks) of compound/drug administration, the treated animals are necropsied. 120 tissues are dissected and rapidly snap-frozen for genomics analysis. Organ samples are isolated for histopathological examinations and for gene expression localizations, such as by in situ hybridization.
Gene expression profiles have been generated using the Affymetrix microarray technology. (i) RNA extraction and purification: Briefly, total RNA was obtained by acid guanidinium thiocyanate-phenol-chloroform extraction (Trizol®, Invitrogen Life Technologies, San Diego, Calif.) from each frozen tissue section and the total RNA was then purified on an affinity resin (Rneasy®, Qiagen) according to the manufacturer's instructions. Total RNA was quantified by the absorbance at λ=260 nm (A260 nm) and the purity was estimated by the ratio A260 nm/A280 nm. Integrity of the RNA molecules was confirmed by non-denaturing agarose gel electrophoresis. RNA was stored at −80° C. until analysis. […] (ii) GeneChip® experiment: All GeneChip® experiments were conducted in the Genomics Factory EU following recommendations by the manufacturer of the GeneChip® system (Affymetrix, Expression Analysis Technical Manual (Affymetrix, Santa Clara, Calif., 2005). Human U133A genome arrays were used for transcript expression analysis. Double stranded cDNA was synthesized with a starting amount of approximately 5 μg full-length total RNA using the Superscript Choice System (Invitrogen Life Technologies) in the presence of a T7-(dT) 24 DNA oligonucleotide primer. Following synthesis, the cDNA was purified by phenol/chloroform/isoamyl alcohol extraction and ethanol precipitation. The purified cDNA was then transcribed in vitro using the BioArray® High Yield RNA Transcript Labeling Kit (ENZO) in the presence of biotinylated ribonucleotides form biotin labelled cRNA. The labelled cRNA was then purified on an affinity resin (Rneasy, Qiagen), quantified and fragmented. An amount of approximately 10 μg labelled cRNA was hybridized for approximately 16 hours at 45° C. to an expression probe array. The array was then washed and stained twice with streptavidin-phycoerythrin (Molecular Probes) using the GeneChip Fluidics Workstation 400 (Affymetrix). The array was then scanned twice using a confocal laser scanner (GeneArray Scanner®, Agilent) resulting in one scanned image. This resulting “.dat-file” was processed using the MASS program (Affymetrix) into a “.cel-file”. The “.cel file” was then transferred to tan Affymetrix GeneChip Laboratory Information Management System (LIMS) database, which is connected to a UNIX Sun Solaris server through a network filing system that allows for the average intensities for all probes cells (CEL file) to be downloaded into an Oracle database (NPGN). Raw data was converted to expression levels using a “target intensity” of 100. […] The data were checked for quality and loaded in the GeneSpring® software versions 5.0 (Silicon Genetics, Calif., US) for statistical analysis.
Quality control analysis of transcriptome data: The following quality measures were analysed for each sample: Scaling factor, background, percent present calls, AFFX-GAPDH 3′: AFFX-GAPDH 5′-ratio, AFFX-GAPDH 3′ variance, AFFX-Beta-actin 3′: AFFX-Beta-actin 5′-ratio.

## O=C(O)Cc1ccccc1Nc1c(Cl)cccc1Cl [Voltaren]
[1]
  ACE (209749_s_at) mRNA expression, Avg fold changes vs control: 1.1 fold
  B2M (216231_s_at) mRNA expression, Avg fold changes vs control: 1.2 fold
  BCL6 (215990_s_at) mRNA expression, Avg fold changes vs control: 1.0 fold
  BTN2A2 (205298_s_at) mRNA expression, Avg fold changes vs control: 1.1 fold
  CCR1 (205098_at) mRNA expression, Avg fold changes vs control: 1.3 fold
  CD2 (205831_at) mRNA expression, Avg fold changes vs control: 1.1 fold
  CD48 (204118_at) mRNA expression, Avg fold changes vs control: 1.2 fold
  CD53 (203416_at) mRNA expression, Avg fold changes vs control: 1.4 fold
  CDC2 (210559_s_at) mRNA expression, Avg fold changes vs control: 1.2 fold
  CYBB (203922_s_at) mRNA expression, Avg fold changes vs control: 1.1 fold
  EMP3 (203729_at) mRNA expression, Avg fold changes vs control: 0.8 fold
  FCER1G (204232_at) mRNA expression, Avg fold changes vs control: 1.5 fold
  FCGR2A (203561_at) mRNA expression, Avg fold changes vs control: 1.4 fold
  FCGRT (218831_s_at) mRNA expression, Avg fold changes vs control: 0.9 fold
  FKBP11 (219117_s_at) mRNA expression, Avg fold changes vs control: 0.7 fold
  FKBP11 (219118_at) mRNA expression, Avg fold changes vs control: 0.8 fold
  GP6 (220336_s_at) mRNA expression, Avg fold changes vs control: 1.0 fold
  HCLS1 (202957_at) mRNA expression, Avg fold changes vs control: 1.1 fold
  HEM1 (209734_at) mRNA expression, Avg fold changes vs control: 1.1 fold
  HLA-A (210514_x_at) mRNA expression, Avg fold changes vs control: 1.0 fold
  HLA-A (213932_x_at) mRNA expression, Avg fold changes vs control: 1.1 fold
  HLA-C (211799_x_at) mRNA expression, Avg fold changes vs control: 0.8 fold
  HLA-E (200904_at) mRNA expression, Avg fold changes vs control: 1.2 fold
  HLA-F (221978_at) mRNA expression, Avg fold changes vs control: 1.4 fold
  ICAM1 (202637_s_at) mRNA expression, Avg fold changes vs control: 1.0 fold
  IL13RA1 (210904_s_at) mRNA expression, Avg fold changes vs control: 0.9 fold
  PIK3CD (203879_at) mRNA expression, Avg fold changes vs control: 1.3 fold
  PRKCBP1 (209048_s_at) mRNA expression, Avg fold changes vs control: 1.0 fold
  PRKCBP1 (209049_s_at) mRNA expression, Avg fold changes vs control: 1.0 fold
  PTPN7 (204852_s_at) mRNA expression, Avg fold changes vs control: 1.4 fold
  SIGIRR (52940_at) mRNA expression, Avg fold changes vs control: 1.0 fold
  STAT1 (200887_s_at) mRNA expression, Avg fold changes vs control: 1.1 fold
  STAT1 (AFFX-HUMISGF3A/M97935_3_at) mRNA expression, Avg fold changes vs control: 1.0 fold
  STAT3 (208992_s_at) mRNA expression, Avg fold changes vs control: 1.1 fold
  TCIRG1 (204158_s_at) mRNA expression, Avg fold changes vs control: 1.0 fold
  THY1 (213869_x_at) mRNA expression, Avg fold changes vs control: 0.6 fold
  TMPO (209753_s_at) mRNA expression, Avg fold changes vs control: 1.1 fold
  TMSB10 (217733_s_at) mRNA expression, Avg fold changes vs control: 1.2 fold
  TNFRSF21 (218856_at) mRNA expression, Avg fold changes vs control: 1.2 fold
  TRB@ (210915_x_at) mRNA expression, Avg fold changes vs control: 1.0 fold
  TRB@ (213193_x_at) mRNA expression, Avg fold changes vs control: 1.2 fold
[2]
  209813_x_at avg fold change vs control: 1.0 fold
  AIF1 (209901_x_at) avg fold change vs control: 1.2 fold
  AIF1 (213095_x_at) avg fold change vs control: 1.5 fold
  B2M (201891_s_at) avg fold change vs control: 1.4 fold
  BCL3 (204908_s_at) avg fold change vs control: 1.3 fold
  BTN3A1 (207485_x_at) avg fold change vs control: 1.1 fold
  BTN3A3 (38241_at) avg fold change vs control: 1.2 fold
  BTN3A3 (204820_s_at) avg fold change vs control: 1.3 fold
  BTN3A3 (204821_at) avg fold change vs control: 1.5 fold
  C1QA (218232_at) avg fold change vs control: 1.2 fold
  C1QB (202953_at) avg fold change vs control: 1.1 fold
  C1R (212067_s_at) avg fold change vs control: 1.4 fold
  C1S (208747_s_at) avg fold change vs control: 1.7 fold
  C2 (203052_at) avg fold change vs control: 1.2 fold
  C4A (208451_s_at) avg fold change vs control: 2.4 fold
  CASP1 (209970_x_at) avg fold change vs control: 1.5 fold
  CASP1 (211367_s_at) avg fold change vs control: 1.3 fold
  CCL2 (216598_s_at) avg fold change vs control: 9.0 fold
  CCL3 (205114_s_at) avg fold change vs control: 1.4 fold
  CCL5 (1405_i_at) avg fold change vs control: 2.2 fold
  CCL8 (214038_at) avg fold change vs control: 1.8 fold
  CCL18 (209924_at) avg fold change vs control: 1.6 fold
  CCL19 (210072_at) avg fold change vs control: 1.6 fold
  CCNB2 (202705_at) avg fold change vs control: 1.3 fold
  CD3D (213539_at) avg fold change vs control: 1.9 fold
  CD8A (205758_at) avg fold change vs control: 1.4 fold
  CD14 (201743_at) avg fold change vs control: 1.1 fold
  CD74 (209619_at) avg fold change vs control: 1.3 fold
  CLU (208791_at) avg fold change vs control: 1.0 fold
  CMAH (210571_s_at) avg fold change vs control: 1.4 fold
  CTSC (201487_at) avg fold change vs control: 1.4 fold
  CTSK (202450_s_at) avg fold change vs control: 1.3 fold
  CTSS (202902_s_at) avg fold change vs control: 1.3 fold
  CX3CR1 (205898_at) avg fold change vs control: 1.6 fold
  CXCL9 (203915_at) avg fold change vs control: 1.3 fold
  CXCL10 (204533_at) avg fold change vs control: 1.3 fold
  CXCL11 (210163_at) avg fold change vs control: 2.1 fold
  CXCL11 (211122_s_at) avg fold change vs control: 2.0 fold
  CXCL12 (209687_at) avg fold change vs control: 1.3 fold
  CYBA (203028_s_at) avg fold change vs control: 1.0 fold
  CYBB (203923_s_at) avg fold change vs control: 1.2 fold
  CYP1B1 (202436_s_at) avg fold change vs control: 1.3 fold
  CYP3A5 (214234_s_at) avg fold change vs control: 1.2 fold
  CYP11B1 (214630_at) avg fold change vs control: 0.9 fold
  DUSP6 (208893_s_at) avg fold change vs control: 1.1 fold
  ECGF1 (204858_s_at) avg fold change vs control: 1.4 fold
  ECM1 (209365_s_at) avg fold change vs control: 1.1 fold
  F2RL1 (206429_at) avg fold change vs control: 1.5 fold
  F13A1 (203305_at) avg fold change vs control: 1.3 fold
  FCGR1A (214511_x_at) avg fold change vs control: 1.0 fold
  FCGR3A (204006_s_at) avg fold change vs control: 1.5 fold
  G1P2 (205483_s_at) avg fold change vs control: 2.1 fold
  GZMB (210164_at) avg fold change vs control: 1.8 fold
  HCA127 (220040_x_at) avg fold change vs control: 0.5 fold
  HCK (208018_s_at) avg fold change vs control: 1.2 fold
  HFE (210864_x_at) avg fold change vs control: 0.9 fold
